Measured values taken from US10913736B2 (UNIVERSITY OF WASHINGTON, priority 2014, dated 2021).
Converted amounts (≈) assume the structure as drawn. “And” between values parts separate entries of the source, which are not always exact repeats. Equal entries are not always repeated. Where two headings read alike, the source gives them in different places.

Columns and labels:
[1] = tested on: L. amaz; assay: L. amaz growth inhibition EC50; type: cell-based; details: read-out: F) L. amaz EC50
[2] = tested on: T. brucei; assay: Growth inhibition assay of T. brucei cell cultures (Alamar Blue, 48 h); type: cell-based
[3] = tested on: E. faecium (ATCC 51559); assay: E. faecium (ATCC 51559) MIC/EC50; type: cell-based
[4] = biological target: MetRS (Giardia) (Giardia intestinalis, UniProt A8BY75); assay: biochemical; details: read-out: D) MetRS (Giardia) aminoacylation assay with modified cpd dilution method IC50
[5] = biological target: MetRS (S. aureus) (Staphylococcus aureus, UniProt Q5HII6); assay: biochemical; details: ATP depletion, Kinase-Glo; read-out: H) MetRS (S. aureus) ATP depletion assay using Kinase-Glo with modified cpd dilution method, IC50
[6] = biological target: MetRS (T. brucei) (Trypanosoma brucei brucei, UniProt Q38C91); assay: MetRS (T. brucei) ATP depletion assay using Kinase-Glo; type: biochemical
[7] = tested on: P. fal (3D37); assay: P. fal (3D37) growth inhibition EC50; type: cell-based; details: read-out: G) P. fal (3D37) EC50
[8] = tested on: T. cruzi; assay: T. cruzi growth inhibition EC50; type: cell-based
[9] = tested on: Giardia intestinalis (ATCC 50580); assay: Giardia intestinalis (ATCC 50580) growth inhibition EC50; type: cell-based
[10] = tested on: E. faecalis (ATCC 29212); assay: E. faecalis (ATCC 29212) MIC/EC50; type: cell-based
[11] = tested on: S. aureus (ATCC 29213); assay: S. aureus (ATCC 29213) MIC/EC50; type: cell-based; details: Staphylococcus aureus, ATCC29213; S. aureus ATCC 29213; read-out: I) S. aureus (ATCC 29213) MIC/EC50, MIC
[12] = tested on: S. aureus MRSA (ATCC 43300); assay: S. aureus MRSA (ATCC 43300) MIC/EC50; type: cell-based; details: Staphylococcus aureus; S. aureus MRSA ATCC 43300; read-out: J) S. aureus MRSA (ATCC 43300) MIC/EC50, MIC
[13] = Trypanosoma brucei; read-out: B) T. brucei EC50
[14] = Trypanosoma cruzi; read-out: C) T. cruzi EC50
[15] = Giardia duodenalis, ATCC50580; read-out: E) Giardia intestinalis (ATCC 50580) EC50
[16] = read-out: E) Giardia intestinalis (ATCC 50580) EC50

MetRS (T. brucei), sequence (Q38C91 entry or part of it): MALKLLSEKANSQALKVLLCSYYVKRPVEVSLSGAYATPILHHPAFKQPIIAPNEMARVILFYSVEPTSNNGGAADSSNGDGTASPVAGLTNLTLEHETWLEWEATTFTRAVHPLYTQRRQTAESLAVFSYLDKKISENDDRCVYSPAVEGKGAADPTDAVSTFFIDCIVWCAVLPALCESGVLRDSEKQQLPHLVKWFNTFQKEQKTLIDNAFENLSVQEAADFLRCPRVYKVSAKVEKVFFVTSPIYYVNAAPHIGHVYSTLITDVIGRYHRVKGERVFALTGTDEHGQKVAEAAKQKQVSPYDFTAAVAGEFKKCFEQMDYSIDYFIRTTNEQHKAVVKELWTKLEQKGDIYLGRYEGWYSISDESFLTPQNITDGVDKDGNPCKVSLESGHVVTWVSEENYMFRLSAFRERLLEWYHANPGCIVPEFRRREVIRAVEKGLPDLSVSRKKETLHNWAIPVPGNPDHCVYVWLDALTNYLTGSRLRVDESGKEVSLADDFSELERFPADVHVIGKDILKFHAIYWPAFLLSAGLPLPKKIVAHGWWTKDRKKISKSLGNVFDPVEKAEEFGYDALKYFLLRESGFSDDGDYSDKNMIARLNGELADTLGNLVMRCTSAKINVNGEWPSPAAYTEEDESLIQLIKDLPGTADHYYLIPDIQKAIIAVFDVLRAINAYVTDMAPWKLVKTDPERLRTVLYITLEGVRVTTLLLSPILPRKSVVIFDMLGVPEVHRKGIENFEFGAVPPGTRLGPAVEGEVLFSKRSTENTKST
MetRS (S. aureus), sequence (Q5HII6 whole entry): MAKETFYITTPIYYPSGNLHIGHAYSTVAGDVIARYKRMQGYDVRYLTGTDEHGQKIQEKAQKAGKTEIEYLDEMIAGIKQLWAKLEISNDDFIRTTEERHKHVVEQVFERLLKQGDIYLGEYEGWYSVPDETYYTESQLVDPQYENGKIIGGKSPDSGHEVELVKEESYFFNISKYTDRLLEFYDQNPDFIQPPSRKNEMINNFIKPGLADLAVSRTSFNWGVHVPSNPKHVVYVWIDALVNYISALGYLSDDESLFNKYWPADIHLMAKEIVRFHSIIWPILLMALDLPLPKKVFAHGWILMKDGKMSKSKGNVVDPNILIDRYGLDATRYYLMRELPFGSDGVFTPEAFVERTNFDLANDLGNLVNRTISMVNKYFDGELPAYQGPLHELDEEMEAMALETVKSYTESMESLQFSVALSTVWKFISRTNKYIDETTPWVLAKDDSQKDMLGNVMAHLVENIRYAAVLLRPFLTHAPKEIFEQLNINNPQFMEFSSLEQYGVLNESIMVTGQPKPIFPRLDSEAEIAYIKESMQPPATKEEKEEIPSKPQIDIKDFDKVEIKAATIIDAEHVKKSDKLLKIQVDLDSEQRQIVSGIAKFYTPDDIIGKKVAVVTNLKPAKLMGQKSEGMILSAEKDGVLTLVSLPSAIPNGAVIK
MetRS (Giardia), sequence (A8BY75 entry or part of it): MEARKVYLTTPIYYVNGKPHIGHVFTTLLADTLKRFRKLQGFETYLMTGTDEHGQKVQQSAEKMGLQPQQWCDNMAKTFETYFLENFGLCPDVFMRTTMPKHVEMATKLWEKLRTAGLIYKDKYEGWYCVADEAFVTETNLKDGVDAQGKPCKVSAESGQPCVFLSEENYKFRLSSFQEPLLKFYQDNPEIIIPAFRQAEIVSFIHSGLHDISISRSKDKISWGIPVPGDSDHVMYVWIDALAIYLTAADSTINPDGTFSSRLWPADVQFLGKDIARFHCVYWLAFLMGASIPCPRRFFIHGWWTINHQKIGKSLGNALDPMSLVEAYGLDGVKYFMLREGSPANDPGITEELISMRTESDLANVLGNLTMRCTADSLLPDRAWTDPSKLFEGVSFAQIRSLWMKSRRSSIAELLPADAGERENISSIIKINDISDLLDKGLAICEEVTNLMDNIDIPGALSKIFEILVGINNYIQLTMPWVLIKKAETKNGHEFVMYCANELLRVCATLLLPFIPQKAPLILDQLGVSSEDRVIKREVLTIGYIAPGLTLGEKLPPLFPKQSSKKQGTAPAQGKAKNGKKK

SMILES	EC50 [1]	EC50 [2, 13]	EC50 ([2]; read-out: B) T. brucei EC50)	L) E. faecium (ATCC 51559) MIC/EC50, MIC [3]	IC50 [4]	IC50 [5]	IC50 [6]	EC50 [7]	EC50 [8, 14]	EC50 [9, 15]	EC50 [9, 16]	K) E. faecalis (ATCC 29212) MIC/EC50, MIC [10]	MIC [11]	EC50 ([8]; read-out: C) T. cruzi EC50)	MIC [12]	K) E. faecalis (ATCC 29212) MIC/EC50, MIC (ug/ml) [10]
Clc1cc(Cl)cc(CNCCCNc2nc3ncccc3[nH]2)c1 [Compound 1575, N1-(3,5-dichlorobenzyl)-N3-(1H-imidazo[4,5-b]pyridin-2-yl)propane-1,3-diamine]	> 10000 nM	9.36 nM	7.64 nM	0.625 µg/mL	36 nM	35 nM	9 nM	7010 nM	193 nM	–	–	–	–	–	–	–
Fc1ccc2nc(NCCCNCc3cc(Cl)cc(Cl)c3)[nH]c2n1 [Compound 1614, [(3,5-dichlorophenyl)methyl][3-({5-fluoro-3H-imidazo[4,5-b]pyridin-2-yl}amino)propyl]amine]	> 1000 nM	–	–	1.25 µg/mL	9 nM	37 nM	16 nM	7710 nM	39.5 nM	3420 nM	1980 nM	0.625 µg/mL	1.25 µg/mL (≈ 3.39 µM)	35.7 nM	–	–
C[C@@H](CNCc1cc(Cl)cc(Cl)c1)CNc1nc2cccnc2[nH]1 [Compound 1655, (S)-N1-(3,5-dichlorobenzyl)-N3-(1H-imidazo[4,5-b]pyridin-2-yl)-2-methylpropane-1,3-diamine]	6740 nM	11.3 nM	7.97 nM	–	–	171 nM	43 nM	–	709 nM	–	–	–	10 µg/mL (≈ 27.5 µM)	–	10 µg/mL (≈ 27.5 µM)	–
C[C@@H](CNCc1cc(Cl)cc(Cl)c1)CNc1nc2nc(F)ccc2[nH]1 [Compound 1673, [(3,5-dichlorophenyl)methyl][(2S)-3-({5-fluoro-3H-imidazo[4,5-b]pyridin-2-yl}amino)-2-methylpropyl]amine]	7860 nM and 5710 nM and 8280 nM	–	–	–	–	113 nM	11 nM	–	1540 nM	–	–	–	5 µg/mL (≈ 13.1 µM)	–	5 µg/mL (≈ 13.1 µM)	–
O=C(CCOc1ccc(Cl)cc1Cl)NCc1nc2ccccc2[nH]1 [Compound 1683, N-(1H-1,3-benzodiazol-2-ylmethyl)-3-(2,4-dichlorophenoxy)propanamide]	> 1000 nM	8830 nM	–	–	> 1000 nM	–	74 nM	–	> 10000 nM	> 2000 nM	–	–	–	–	–	–
Fc1ccc2nc(NCCCN[C@@H]3CCOc4c(Cl)cc(Cl)cc43)[nH]c2n1 [Compound 1709, (4R)-6,8-dichloro-N-[3-({5-fluoro-3H-imidazo[4,5-b]pyridin-2-yl}amino)propyl]-3,4-dihydro-2H-1-benzopyran-4-amine]	1300 nM and 1130 nM	–	–	>0.04 µg/mL	2 nM	19 nM	8 nM	–	> 4.57 nM	664 nM	492 nM	–	–	5.05 nM	–	–
Fc1ccc2nc(NCCCN[C@H]3CCOc4c(Cl)cc(Cl)cc43)[nH]c2n1 [Compound 1711, (4S)-6,8-dichloro-N-[3-({5-fluoro-3H-imidazo[4,5-b]pyridin-2-yl}amino)propyl]-3,4-dihydro-2H-1-benzopyran-4-amine]	–	2820 nM	–	>10 µg/mL	–	368 nM	752 nM	–	–	–	–	–	–	–	–	>10, >10 ug/ml
Fc1ccc2nc(NCCCN[C@@H]3CCNc4c(Cl)cc(Cl)cc43)[nH]c2n1 [Compound 1717, (4R)-6,8-dichloro-N-[3-({5-fluoro-3H-imidazo[4,5-b]pyridin-2-yl}amino)propyl]-1,2,3,4-tetrahydroquinolin-4-amine]	2850 nM	–	–	>0.04 µg/mL	3 nM	28 nM	28 nM	–	> 4.57 nM	590 nM	316 nM	> 0.04 µg/mL and 0.079 µg/mL	0.157 µg/mL (≈ 0.384 µM)	3.72 nM	0.157 µg/mL (≈ 0.384 µM)	–
O=C(/C=C/Oc1ccc(Cl)cc1Cl)NCc1nc2ccccc2[nH]1 [Compound 1729, (2E)-N-(1H-1,3-benzodiazol-2-ylmethyl)-3-(2,4-dichlorophenoxy)prop-2-enamide]	> 1000 nM	119 nM	–	>10 µg/mL	–	27 nM	17 nM	–	> 5000 nM	–	–	–	–	–	–	–
O=C(Cc1cc(Cl)cc(Cl)c1)N1CCCC(c2nc3cc(Cl)ccc3[nH]2)C1 (stereo not shown) [Compound 1734, 1-(3-(5-chloro-1H-benzo[d]imidazol-2-yl)piperidin-1-yl)-2-(3,5-dichlorophenyl) ethanone]	–	1400 nM	–	–	–	2440 nM	60 nM	–	4910 nM	–	–	–	> 10 µg/mL	–	> 10 µg/mL	–
Clc1cc(Cl)cc(Cn2cc(Cc3nc4ccccc4[nH]3)nn2)c1 [Compound 1753, 2-({1-[(3,5-dichlorophenyl)methyl]-1H-1,2,3-triazol-4-yl}methyl)-1H-1,3-benzodiazole]	–	2330 nM	–	>10 µg/mL	–	1100 nM	73 nM	–	> 5000 nM	–	–	–	–	–	–	–
O=C(Cc1cc(Cl)cc(Cl)c1)N1CCCC(c2nc3nc(F)ccc3[nH]2)C1 (stereo not shown) [Compound 1761, 2-(3,5-dichlorophenyl)-1-(3-(5-fluoro-1H-imidazo[4,5-b]pyridin-2-yl)piperidin-1-yl)ethanone]	–	996 nM	–	–	–	1910 nM	54 nM	–	> 5000 nM	–	–	–	> 10 µg/mL	–	> 10 µg/mL	–
Clc1cc(Cl)cc(CNCCc2nc3ccc(Cl)cc3[nH]2)c1 [Compound 1767, [2-(6-chloro-1H-1,3-benzodiazol-2-yl)ethyl][(3,5-dichlorophenyl)methyl]amine]	–	627 nM	–	–	–	> 1000 nM	51 nM	–	2930 nM	–	–	–	> 10 µg/mL	–	10 µg/mL (≈ 28.2 µM)	–
O=C(/C=C/Oc1ccc(Cl)cc1Cl)NCc1nc2ccc(F)nc2[nH]1 [Compound 1768, 3-(2,4-Dichloro-phenoxy)-N-(5-fluoro-3H-imidazo[4,5-b]pyridin-2-ylmethyl)-acrylamide]	> 1000 nM	70.2 nM	–	–	–	30 nM	18 nM	–	1690 nM	–	–	–	> 10 µg/mL	–	> 10 µg/mL	–
O=c1c(NCc2nc3ccccc3[nH]2)c(NCc2ccc(Cl)cc2Cl)c1=O [Compound 1769, 3-[(H-Benzoimidazol-2-ylmethyl)-amino]-4-(2,4-dichloro-benzylamino)-cyclobut-3-ene-1,2-dione]	–	1070 nM	–	–	–	95 nM	11 nM	–	> 5000 nM	–	–	–	> 10 µg/mL	–	> 10 µg/mL	–
